Measurements reported in US4874898A, “Novel substituted anthrasteroid derivatives” (Shionogi and Co., Ltd. Patent Department, priority 1987, dated 1989).

How the values were obtained:
[1] = test system: seminal vesicles; assay: Assay for Antiandrogenic Activity (Subcutaneous administration), seminal vesicle weight; assay type: in vivo, SD-JCL male rats (castrated); settings: for I. R. (%) A* (Inhibition rate, seminal vesicle) / Weight (Mean mg ± S.E.) A* (seminal vesicle): 7 days; for I. R. (%) A* (Inhibition rate, seminal vesicle): with testosterone propionate 0.02 mg/day, Table 1-1; for Weight (Mean mg ± S.E.) A* (seminal vesicle) / I. R. (%) A* (seminal vesicle): Table 1-2
Experimental: (§1) Assay for Antiandrogenic Activity (Subcutaneous administration)
(§2) The three week-old SD-JCL male rats were castrated and the drug treatment was started from three days after the castration. The rats were divided into groups; one group consists of six rats. One group was intact with any drug, the 2nd group was treated subcutaneously with a solution or suspension of 0.02 mg of testosterone propionate in sesame oil a day, and the other groups was treated with 0.1 to 3 mg of the test compound and 0.02 mg of testosterone propionate in sesame oil a day. This treatment was carried out for 7 days, successively. The rats were killed next day of the last treatment and the seminal vesicles and ventral prostates were taken out and weighed. Antiandrogenic activity of the test compounds were estimated as […] of seminal vesicles and ventral prostates induced by testosterone propionate.

[2] = test system: ventral prostates; assay: Assay for Antiandrogenic Activity (Subcutaneous administration), ventral prostate weight; assay type: in vivo, SD-JCL male rats (castrated); settings: for I. R. (%) B* (Inhibition rate, prostate) / Weight (Mean mg ± S.E.) B* (prostate): 7 days; for I. R. (%) B* (Inhibition rate, prostate): with testosterone propionate 0.02 mg/day, Table 1-1; for Weight (Mean mg ± S.E.) B* (prostate) / I. R. (%) B* (prostate): Table 1-2
Experimental: as §1, §2

[3] = test system: seminal vesicles; assay: Assay for Antiandrogenic Activity (Oral Administration), seminal vesicle weight; assay type: in vivo, SD-JCL male rats (castrated); settings: 3 mg orally, 7 days, with testosterone propionate 0.02 mg/day s.c.; Table 2
Experimental: (§3) Assay for Antiandrogenic Activity (Oral Administration)
(§4) The three week-old SD-JCL male rats were castrated and the drug treatment was started from three days after the castration. The rats were divided into groups; one group consists of six rats. One group was treated with 0.02 mg of testosterone propionate in sesame oil a day by injecting subcutaneously and the other groups were treated with 0.02 mg of testosterone propionate and simultaneously treated orally with a suspension of 3 mg of the test compound in sesame oil. The castrated control group was treated with sesame oil. This treatment was continued for 7 days, successively. The rats were killed 24 hours after the last treatment and the seminal vesicles and ventral prostates were taken out and weighed.

[4] = test system: ventral prostates; assay: Assay for Antiandrogenic Activity (Oral Administration), ventral prostate weight; assay type: in vivo, SD-JCL male rats (castrated); settings: 3 mg orally, 7 days, with testosterone propionate 0.02 mg/day s.c.; Table 2
Experimental: as §3, §4

[5] = test system: Shionogi-carcinoma 115 (SC-115); assay: Assay for growth inhibitory activity against androgen-dependent tumor (Shionogi-carcinoma 115); assay type: in vivo, mice (castrated); settings: 14 days
Source text: The followings show an assay for antiandrogenic activity against androgen-dependent tumor, Shionogi-carcinoma 115 (SC-115). The SC-115 is a tumor cell which grows in the presence of an androgen and its hormone dependency is widely known as a prostatic cancer model. Therefore, the androgenic activity is also estimated by examining the growth inhibition effect against this tumor.
Assay for growth inhibitory activity against androgen-dependent tumor (Shionogi-carcinoma 115)
The six week-old mice were castrated and […] of Shionogi-carcinoma tumor pieces was grafted into the back subcutaneously on the fifth day from the castration. The grafted mice were divided into groups, each consisting of seven mice, and the drug treatment was started immediately after the graft. One group was intact with any drug, and the 2nd group was treated subcutaneously with 0.1 mg of testosterone propionate a day. The other groups were treated subcutaneously with a suspension of 0.1 mg of testosterone propionate and 0.1 to 2.0 mg per day of test compounds a day as a conventional steroid solution. This treatment was carried out for 14 days, successively. The mice were killed next day of the last treatment and the tumor was taken out to weigh.

[6] = 0.1 mg/day s.c., with testosterone propionate 0.1 mg/day
[7] = 0.5 mg/day s.c., with testosterone propionate 0.1 mg/day
[8] = 2.0 mg/day s.c., with testosterone propionate 0.1 mg/day
[9] = testosterone propionate alone, 0.02 mg/day s.c.
[10] = 0.1 mg/day s.c., with testosterone propionate
[11] = 0.3 mg/day s.c., with testosterone propionate
[12] = 1 mg/day s.c., with testosterone propionate
[13] = 3 mg/day s.c., with testosterone propionate

## CC1C2=CC(=O)CCC2CC2C1CCC1(C)C(O)CCC21 (stereo not shown)
[1]; 1 mg/day s.c.
  I. R. (%) A* (Inhibition rate, seminal vesicle): 25%

## CC1=C2C=CC3(C)C(O)CCC3C2CC2CCC(=O)C=C12 (stereo not shown)
[2]; 1 mg/day s.c.
  I. R. (%) B* (Inhibition rate, prostate): 44%
[1]; 1 mg/day s.c.
  I. R. (%) A* (Inhibition rate, seminal vesicle): 69%

## CC1=C2CCC3(C)C(=O)CCC3C2CC2CCC(=O)C=C12 (stereo not shown)
[2]; 1 mg/day s.c.
  I. R. (%) B* (Inhibition rate, prostate): 42%
[1]; 1 mg/day s.c.
  I. R. (%) A* (Inhibition rate, seminal vesicle): 57%

## CCC(=O)OC1CCC2C3CC4CCC(=O)C=C4C(C)=C3CCC12C (stereo not shown)
[2]; 1 mg/day s.c.
  I. R. (%) B* (Inhibition rate, prostate): 50%
[1]; 1 mg/day s.c.
  I. R. (%) A* (Inhibition rate, seminal vesicle): 74%

## CC1=C2CCC3(C)C(CCC3(C)O)C2CC2CCC(=O)C=C12 (stereo not shown)
[2]; 1 mg/day s.c.
  I. R. (%) B* (Inhibition rate, prostate): 41%
[1]; 1 mg/day s.c.
  I. R. (%) A* (Inhibition rate, seminal vesicle): 67%

## CC1=C2CCC3(C)C(O)C(F)CC3C2CC2CCC(=O)C=C12 (stereo not shown)
[2]; 1 mg/day s.c.
  I. R. (%) B* (Inhibition rate, prostate): 52%
[1]; 1 mg/day s.c.
  I. R. (%) A* (Inhibition rate, seminal vesicle): 77%

## CC1=C2CCC3(C)C(OC4=CCCCCCC4)CCC3C2CC2CCC(=O)C=C12 (stereo not shown)
[3]
  I. R. (%) A* (seminal vesicle): 39%
[4]
  I. R. (%) B* (prostate): 34%

## CC1=C2CC3(CCC2CC2C1=CCC1(C)C(=O)CCC21)OCCO3 (stereo not shown)
[3]
  I. R. (%) A* (seminal vesicle): 26%
[4]
  I. R. (%) B* (prostate): 25%

## CC1=C2CCC3(C)C(O)C(CBr)CC3C2CC2CCC(=O)C=C12 (stereo not shown)
[3]
  I. R. (%) A* (seminal vesicle): 51%
[4]
  I. R. (%) B* (prostate): 43%

## CC1=C2CCC3(C)C(O)C(Br)CC3C2CC2CCC(=O)C=C12 (stereo not shown)
[5]; [6]
  Inhibition Rate (%) of tumor weight: 11%
  Tumor Weight (Mean mg ± S.E.): 2871 ± 277 mg
[5]; [7]
  Inhibition Rate (%) of tumor weight: 40%
  Tumor Weight (Mean mg ± S.E.): 1950 ± 144 mg
[5]; [8]
  Inhibition Rate (%) of tumor weight: 69%
  Tumor Weight (Mean mg ± S.E.): 1004 mg

## CCC(=O)O[C@H]1CC[C@H]2[C@@H]3CCC4=CC(=O)CC[C@]4(C)[C@H]3CC[C@]12C [Testosterone propionate, testosterone propionate, reference compound]
[2]; [9]
  Weight (Mean mg ± S.E.) B* (prostate): 40.1 ± 1.3 mg
[1]; [9]
  Weight (Mean mg ± S.E.) A* (seminal vesicle): 26.1 ± 0.8 mg
[5]; testosterone propionate alone, 0.1 mg/day s.c.
  Tumor Weight (Mean mg ± S.E.): 3241 ± 456 mg

## CC1=C2CCC3(C)C(O)CCC3C2CC2CCC(=O)C=C12 (stereo not shown) [drawing 52]
[2]; [10]
  Weight (Mean mg ± S.E.) B* (prostate): 37.9 ± 3.0 mg
[2]; [11]
  Weight (Mean mg ± S.E.) B* (prostate): 37.3 ± 3.0 mg
[2]; [12]
  Weight (Mean mg ± S.E.) B* (prostate): 27.5 ± 2.2 mg
  I. R. (%) B* (prostate): 43%
[2]; [13]
  Weight (Mean mg ± S.E.) B* (prostate): 23.8 ± 1.6 mg
  I. R. (%) B* (prostate): 55%
[1]; [10]
  Weight (Mean mg ± S.E.) A* (seminal vesicle): 19.9 ± 0.6 mg
  I. R. (%) A* (seminal vesicle): 31%
[1]; [11]
  Weight (Mean mg ± S.E.) A* (seminal vesicle): 20.7 ± 1.3 mg
  I. R. (%) A* (seminal vesicle): 27%
[1]; [12]
  Weight (Mean mg ± S.E.) A* (seminal vesicle): 15.0 ± 0.7 mg
  I. R. (%) A* (seminal vesicle): 56%
[1]; [13]
  Weight (Mean mg ± S.E.) A* (seminal vesicle): 11.4 ± 0.8 mg
  I. R. (%) A* (seminal vesicle): 74%

## CC1=C2CCC3(C)C(O)CCC3C2CC2CCC(=O)C=C12 (stereo not shown) [drawing 56]
[5]; [6]
  Inhibition Rate (%) of tumor weight: 48%
  Tumor Weight (Mean mg ± S.E.): 1682 ± 177 mg
[5]; [7]
  Inhibition Rate (%) of tumor weight: 59%
  Tumor Weight (Mean mg ± S.E.): 1343 ± 283 mg
[5]; [8]
  Inhibition Rate (%) of tumor weight: 92%
  Tumor Weight (Mean mg ± S.E.): 255 mg
